{"source": "patent US20130288989A1", "about": "“NEW USE OF CHEMICAL INGREDIENTS IN CYNOMORIUM AS PHYTOESTROGEN” (TIANJIN UNIVERSITY OF TRADITIONAL CHINESE MEDICINE, priority 2010, published 2013)", "type_in_all_cases": "cell-based", "key": {"ERα": {"molecular_target": "T1, ERα (Homo sapiens, UniProt P03372)", "T1 construct": "expressed in transfected cells; host or cells: Hela cells (ER expression free)", "T1 sequence (P03372 1-595)": "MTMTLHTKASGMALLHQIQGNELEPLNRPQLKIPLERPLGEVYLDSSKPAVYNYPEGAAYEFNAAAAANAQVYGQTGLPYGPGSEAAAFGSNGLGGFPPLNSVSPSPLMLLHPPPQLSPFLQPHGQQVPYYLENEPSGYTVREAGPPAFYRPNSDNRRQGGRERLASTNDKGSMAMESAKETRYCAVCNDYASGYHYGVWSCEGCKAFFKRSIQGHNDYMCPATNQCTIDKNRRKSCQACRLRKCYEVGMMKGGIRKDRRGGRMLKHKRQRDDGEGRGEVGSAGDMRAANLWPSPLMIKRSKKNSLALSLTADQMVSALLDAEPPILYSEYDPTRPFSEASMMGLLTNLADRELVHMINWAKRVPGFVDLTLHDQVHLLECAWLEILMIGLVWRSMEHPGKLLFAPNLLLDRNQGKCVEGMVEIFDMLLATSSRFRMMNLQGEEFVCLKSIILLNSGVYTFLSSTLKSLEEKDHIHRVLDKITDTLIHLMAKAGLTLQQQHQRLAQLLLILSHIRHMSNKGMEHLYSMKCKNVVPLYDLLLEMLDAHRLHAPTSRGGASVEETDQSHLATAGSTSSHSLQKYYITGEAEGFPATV", "experiment": "ERα luciferase reporter gene transcription activation in transfected Hela cells", "settings": "for ERα (% of the control) mean ± S.D. / ERα (% of estradiol): Hela cells; for ERα (% of the control) mean ± S.D.: 24 h; for ERα (% of estradiol): estradiol at 10^−8M; for concentration at which the transcriptional activity of ERα is agonized: luciferase reporter gene", "text": "(§1) Actually, estrogens show their biological activity by regulating estrogen responding genetic transcription.\n(§2) Formulation of sample solutions of catechin, (−)epicatechin-3-O-gallate, naringenin-4′-O-glucoside, phlorizin, emodin, chrysophanol (separately obtained from Example 1):\n(§3) Catechin, (−)epicatechin-3-O-gallate, naringenin-4′-O-glucoside, phlorizin, emodin, chrysophanol in corresponding weights were separately weighed precisely, than added with DMSO for dissolution, the corresponding sample solution high dose groups (10 μM or 1 μM), were diluted in certain times to separately obtain low dose groups (1 μM to 0.001 μM).\n(§4) Under condition of 37° C. and 5% CO2, Hela cells were cultured in phenol red-free high sugar DMEM culture medium containing 10% calf serum in incubator, the cells were spread in 60% density on 96-well plate when cell density was about 90%, each well was added with 150 ul of phenol red-free DMEM culture medium containing 10% serum, cultivation was performed overnight. To each well of the 96-well plate, 100 ul of serum-free DMEM culture medium and 0.4 μg plasmid (ptk-ERE-luc 2 μg, tk-Renila 1 μg, ERα or ERβ 1 μg) were used for transfection. After 6 h of transfection, each well was added with 150 ul of serum-free phenol red-free DMEM culture medium. Three wells were selected form each group, added with 10^−8M estradiol E2, and substance to be tested in different concentrations, 15 ul/well (sample 4-5 concentration gradient groups), continuously cultured under condition of 37° C., 5% CO2 for 24 h. After 24 h, each well was added with 80 μl of cell disruption solution, and the cells were subjected to freeze thawing once to be sufficiently disrupted. As for the cell lysis solution of each well, its activities to firefly luciferase and Renila luciferase were separately measured."}, "ERβ": {"molecular_target": "T2, ERβ (Homo sapiens, UniProt Q92731)", "T2 construct": "expressed in transfected cells; host or cells: Hela cells (ER expression free)", "T2 sequence (Q92731 whole entry)": "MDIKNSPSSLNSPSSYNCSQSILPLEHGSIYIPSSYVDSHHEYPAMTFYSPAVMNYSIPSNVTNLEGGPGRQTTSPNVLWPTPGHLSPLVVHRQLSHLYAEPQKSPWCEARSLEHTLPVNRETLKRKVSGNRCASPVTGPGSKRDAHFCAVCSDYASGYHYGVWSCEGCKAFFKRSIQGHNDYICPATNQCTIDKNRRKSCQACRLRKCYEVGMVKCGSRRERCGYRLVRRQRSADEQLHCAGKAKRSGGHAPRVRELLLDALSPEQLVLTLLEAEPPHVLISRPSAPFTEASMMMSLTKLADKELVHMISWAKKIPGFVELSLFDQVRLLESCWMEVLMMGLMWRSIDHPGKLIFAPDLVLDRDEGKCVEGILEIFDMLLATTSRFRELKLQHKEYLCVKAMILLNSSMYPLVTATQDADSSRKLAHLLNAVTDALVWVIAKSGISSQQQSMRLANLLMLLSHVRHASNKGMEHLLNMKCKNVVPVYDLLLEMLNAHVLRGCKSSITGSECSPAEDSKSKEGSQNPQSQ", "experiment": "ERβ luciferase reporter gene transcription activation in transfected Hela cells", "settings": "for ERβ (% of the control) mean ± S.D. / ERβ (% of estradiol): Hela cells; for ERβ (% of the control) mean ± S.D.: 24 h; for ERβ (% of estradiol): estradiol at 10^−8M; for concentration at which the transcriptional activity of ERβ is agonized: luciferase reporter gene", "text": "as §1, §2, §3, §4"}, "estrogen receptor": {"test_system": "estrogen receptor", "experiment": "Estrogen receptor activation test: overall estrogen activity and ERβ versus ERα comparison", "settings": "for ERβ/ERα (both % of estradiol at 10^−8M): Hela cells; for estrogen activity / estrogen receptor activation (in words): estradiol as positive control; for selectivity to receptor subtypes (ERα vs ERβ): result in words", "method": "as §1, §4"}}, "note": "“Also recorded” adds a separate entry of the source."}
{"smiles": "O=C(CCc1ccc(O)cc1)c1c(O)cc(O)cc1O[C@@H]1O[C@H](CO)[C@@H](O)[C@H](O)[C@H]1O", "note": "[Phlorizin, phlorizin]", "values": [{"measurement": "ERα (% of the control) mean ± S.D.", "setting": "ERα; 10^−5 M", "value": "137.71 ± 8.44 % of the control"}, {"measurement": "ERα (% of estradiol)", "setting": "ERα; 10^−5 M", "value": "(72.38) % of estradiol"}, {"measurement": "ERα (% of the control) mean ± S.D.", "setting": "ERα; 10^−6 M", "value": "122.09 ± 11.33 % of the control"}, {"measurement": "ERα (% of estradiol)", "setting": "ERα; 10^−6 M", "value": "(64.17) % of estradiol"}, {"measurement": "ERα (% of the control) mean ± S.D.", "setting": "ERα; 10^−7 M", "value": "118.40 ± 4.20 % of the control"}, {"measurement": "ERα (% of estradiol)", "setting": "ERα; 10^−7 M", "value": "(62.23) % of estradiol"}, {"measurement": "ERα (% of the control) mean ± S.D.", "setting": "ERα; 10^−8 M", "value": "105.43 ± 13.57 % of the control"}, {"measurement": "ERα (% of estradiol)", "setting": "ERα; 10^−8 M", "value": "(55.41) % of estradiol"}, {"measurement": "concentration at which the transcriptional activity of ERα is agonized", "setting": "ERα", "value": "10^−6-10^−5 M"}, {"measurement": "ERβ (% of the control) mean ± S.D.", "setting": "ERβ; 10^−5 M", "value": "147.95 ± 10.29 % of the control"}, {"measurement": "ERβ (% of estradiol)", "setting": "ERβ; 10^−5 M", "value": "(80.17) % of estradiol"}, {"measurement": "ERβ (% of the control) mean ± S.D.", "setting": "ERβ; 10^−6 M", "value": "133.79 ± 5.45 % of the control"}, {"measurement": "ERβ (% of estradiol)", "setting": "ERβ; 10^−6 M", "value": "(72.50) % of estradiol"}, {"measurement": "ERβ (% of the control) mean ± S.D.", "setting": "ERβ; 10^−7 M", "value": "116.14 ± 8.86 % of the control"}, {"measurement": "ERβ (% of estradiol)", "setting": "ERβ; 10^−7 M", "value": "(62.93) % of estradiol"}, {"measurement": "ERβ (% of the control) mean ± S.D.", "setting": "ERβ; 10^−8 M", "value": "109.38 ± 8.72 % of the control"}, {"measurement": "ERβ (% of estradiol)", "setting": "ERβ; 10^−8 M", "value": "(59.27) % of estradiol"}, {"measurement": "concentration at which the transcriptional activity of ERβ is agonized", "setting": "ERβ", "value": "10^−6-10^−5 M"}, {"measurement": "ERβ/ERα (both % of estradiol at 10^−8M)", "setting": "estrogen receptor; sample 10^−5 M", "value": 1.11}, {"measurement": "ERβ/ERα (both % of estradiol at 10^−8M)", "setting": "estrogen receptor; sample 10^−6 M", "value": 1.13}, {"measurement": "ERβ/ERα (both % of estradiol at 10^−8M)", "setting": "estrogen receptor; sample 10^−7 M", "value": 1.01}, {"measurement": "ERβ/ERα (both % of estradiol at 10^−8M)", "setting": "estrogen receptor; sample 10^−8 M", "value": 1.07}, {"measurement": "estrogen activity / estrogen receptor activation (in words)", "setting": "estrogen receptor", "value": "show relevance to estrogen receptor activation; also recorded: potent activity of estrogen"}, {"measurement": "selectivity to receptor subtypes (ERα vs ERβ)", "setting": "estrogen receptor", "value": "no significant selectivity to receptor subtypes"}]}
{"smiles": "Cc1cc(O)c2c(c1)C(=O)c1cc(O)cc(O)c1C2=O", "note": "[Emodin, emodin]", "values": [{"measurement": "ERα (% of the control) mean ± S.D.", "setting": "ERα; 10^−6 M", "value": "146.40 ± 18.07 % of the control"}, {"measurement": "ERα (% of estradiol)", "setting": "ERα; 10^−6 M", "value": "(64.01) % of estradiol"}, {"measurement": "ERα (% of the control) mean ± S.D.", "setting": "ERα; 10^−7 M", "value": "109.96 ± 11.33 % of the control"}, {"measurement": "ERα (% of estradiol)", "setting": "ERα; 10^−7 M", "value": "(48.07) % of estradiol"}, {"measurement": "ERα (% of the control) mean ± S.D.", "setting": "ERα; 10^−8 M", "value": "108.48 ± 27.45 % of the control"}, {"measurement": "ERα (% of estradiol)", "setting": "ERα; 10^−8 M", "value": "(47.43) % of estradiol"}, {"measurement": "ERα (% of the control) mean ± S.D.", "setting": "ERα; 10^−9 M", "value": "101.27 ± 15.90 % of the control"}, {"measurement": "ERα (% of estradiol)", "setting": "ERα; 10^−9 M", "value": "(44.27) % of estradiol"}, {"measurement": "concentration at which the transcriptional activity of ERα is agonized", "setting": "ERα", "value": "10^−6 M"}, {"measurement": "ERβ (% of the control) mean ± S.D.", "setting": "ERβ; 10^−6 M", "value": "145.21 ± 8.06 % of the control"}, {"measurement": "ERβ (% of estradiol)", "setting": "ERβ; 10^−6 M", "value": "(65.63) % of estradiol"}, {"measurement": "ERβ (% of the control) mean ± S.D.", "setting": "ERβ; 10^−7 M", "value": "106.60 ± 10.76 % of the control"}, {"measurement": "ERβ (% of estradiol)", "setting": "ERβ; 10^−7 M", "value": "(48.18) % of estradiol"}, {"measurement": "ERβ (% of the control) mean ± S.D.", "setting": "ERβ; 10^−8 M", "value": "104.92 ± 9.08 % of the control"}, {"measurement": "ERβ (% of estradiol)", "setting": "ERβ; 10^−8 M", "value": "(47.42) % of estradiol"}, {"measurement": "ERβ (% of the control) mean ± S.D.", "setting": "ERβ; 10^−9 M", "value": "104.68 ± 13.96 % of the control"}, {"measurement": "ERβ (% of estradiol)", "setting": "ERβ; 10^−9 M", "value": "47.31 % of estradiol"}, {"measurement": "concentration at which the transcriptional activity of ERβ is agonized", "setting": "ERβ", "value": "10^−6 M"}, {"measurement": "ERβ/ERα (both % of estradiol at 10^−8M)", "setting": "estrogen receptor; sample 10^−6 M", "value": 1.03}, {"measurement": "ERβ/ERα (both % of estradiol at 10^−8M)", "setting": "estrogen receptor; sample 10^−7 M", "value": 1.00}, {"measurement": "ERβ/ERα (both % of estradiol at 10^−8M)", "setting": "estrogen receptor; sample 10^−8 M", "value": 1.00}, {"measurement": "ERβ/ERα (both % of estradiol at 10^−8M)", "setting": "estrogen receptor; sample 10^−9 M", "value": 1.07}, {"measurement": "estrogen activity / estrogen receptor activation (in words)", "setting": "estrogen receptor", "value": "show relevance to estrogen receptor activation"}, {"measurement": "selectivity to receptor subtypes (ERα vs ERβ)", "setting": "estrogen receptor", "value": "no receptor selectivity"}]}
